Experimental findings from paper PMC10584170, “Machine learning-based phenotypic imaging to characterise the targetable biology of Plasmodium falciparum male gametocytes for the development of transmission-blocking antimalarials” (PLOS Pathogens, 2023) are described below.

The structures appear in SMILES notation.

The subject of assay [1] is P. falciparum female gametocytes. Nature of the assay: P. falciparum Dual Gamete Formation Assay (PfDGFA), female readout (Pfs25-positive female gametes). The format is cell-based, Plasmodium falciparum NF54. As to conditions: for Average inhibition female (%): average of replicates; for % inhibition female (individual replicates) R1: replicate R1; for % inhibition female (individual replicates) R3: replicate R3; for % inhibition female (individual replicates) R4: replicate R4. In short, it runs like this: (§1)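 Day-14 NF54 gametocytes were incubated with compound for 24 h at 37°C under 1% O2/3% CO2/96% N2. Gametogenesis was triggered with ookinete medium (0.1 μM xanthurenic acid) plus Cy3-anti-Pfs25, and exflagellation was imaged by brightfield after cooling to 4°C then 28°C. Females were imaged by Pfs25 fluorescence 24 h later at 28°C.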

The test system of assay [2] is P. falciparum male gametocytes. Nature of the assay: P. falciparum Dual Gamete Formation Assay (PfDGFA), male readout (exflagellation). Format: cell-based, Plasmodium falciparum NF54. As to conditions: for Average inhibition male (%): average of replicates; for % inhibition male (individual replicates) R1: replicate R1; for % inhibition male (individual replicates) R4: replicate R4; for Activity: hit = >50% inhibition in male or female readout in at least 3 replicates, 0 = no class assigned; for % inhibition male (individual replicates) R3: replicate R3. In short, it runs like this:
as §1

[3] abbreviates: 2µM, 24h preincubation with gametocytes prior to induction of gametogenesis.
[4] abbreviates: 2µM, 24h preincubation, hits selected on >50% inhibition in the female readout across replicates.
[5] abbreviates: 2µM, 24h preincubation, hits selected on >50% inhibition in the male readout across replicates.
[6] abbreviates: PfDGFA at 2µM, 24h preincubation.
Where [7] appears, read: 2µM, 24h preincubation, number of replicates with >50% inhibition in the female readout.
[8] abbreviates: 2µM, 24h preincubation, number of replicates with >50% inhibition in the male readout.
The mark [9] stands for this setting: PfDGFA at 2µM, 24h preincubation with gametocytes prior to induction of gametogenesis.
Setting [10] is: PfDGFA at 2µM, 24h preincubation with gametocytes.

Regarding `CCCCCCCN1CC[C@@H](CCCc2ccnc3ccc(OC)cc23)[C@@H](CCN)C1.O=C(O)C(=O)O` [TCMDC-139278], in assay [1] (setting [3]), the “Average inhibition female (%)” value is listed as 13.3%, the “% inhibition female (individual replicates) R1” value worked out at 23.8%, the “% inhibition female (individual replicates) R3” value is -1.7% and the “% inhibition female (individual replicates) R4” value is 20.4%. Moreover, in assay [1] (setting [4]), the HitlevelF is listed as 0. In addition, in assay [2] (setting [3]), the “Average inhibition male (%)” value is listed as 60.9%, the “% inhibition male (individual replicates) R1” value stood at 62.0% and the “% inhibition male (individual replicates) R4” value is listed as 48.5%. Besides, the HitlevelM in assay [2] (setting [5]) was found to be 2. Moreover, in assay [2] (setting [6]), the Activity is listed as 0.

For `COc1ccc(COc2cc(NCCCN)nc3ccccc23)cc1` [TCMDC-139286], in assay [1] (setting [3]), the “Average inhibition female (%)” value is given as 19.5%, the “% inhibition female (individual replicates) R1” value is on record as 25.0%, the “% inhibition female (individual replicates) R3” value was determined as 18.0% and the “% inhibition female (individual replicates) R4” value is recorded as 26.8%. The molecule further registered a HitlevelF in assay [1] (setting [7]) of 0. Further, in assay [2] (setting [3]), the “Average inhibition male (%)” value is 30.7%, the “% inhibition male (individual replicates) R1” value is 52.7%, the “% inhibition male (individual replicates) R3” value was found to be 36.6% and the “% inhibition male (individual replicates) R4” value was 44.0%. In assay [2] (setting [8]), the HitlevelM is 1.

On to `COc1cc(NCC(O)CNc2cc(OC)c3ccccc3n2)nc2ccccc12` [TCMDC-139360], for which, in assay [1] (setting [3]), the “Average inhibition female (%)” value worked out at 25.6%, the “% inhibition female (individual replicates) R1” value turned out to be 27.5%, the “% inhibition female (individual replicates) R3” value worked out at 10.8% and the “% inhibition female (individual replicates) R4” value was 36.1%. In assay [1] (setting [7]), the HitlevelF is reported as 0. In addition, in assay [2] (setting [3]), the “Average inhibition male (%)” value is listed as 53.4%, the “% inhibition male (individual replicates) R1” value was 68.1%, the “% inhibition male (individual replicates) R3” value turned out to be 33.7% and the “% inhibition male (individual replicates) R4” value is recorded as 64.9%. In assay [2] (setting [8]), this molecule came in with a HitlevelM of 2.

Turning to `COc1ccc(C(=O)Nc2cc(Cl)c3c(c2)C2CCCN2CC3)cc1C(F)(F)F.Cl` (stereo not shown) [TCMDC-139417], in assay [1] (setting [9]), the “% inhibition female (individual replicates) R1” value came to 2.5%, the “% inhibition female (individual replicates) R3” value is reported as -4.3% and the “% inhibition female (individual replicates) R4” value came to 1.3%. Moreover, the “Average inhibition female (%)” value in assay [1] (setting [6]) amounted to 1.8%. In assay [2] (setting [9]), the “% inhibition male (individual replicates) R1” value is -1.3% and the “% inhibition male (individual replicates) R4” value was found to be 9.8%. Moreover, the “Average inhibition male (%)” value in assay [2] (setting [6]) is listed as 13.2%.

With `N=C(N)Nc1nc(-c2cccc(NC(=O)NCCc3c[nH]c4ccc(OCc5ccccc5)cc34)c2)cs1` [TCMDC-139557], in assay [1] (setting [3]), the “Average inhibition female (%)” value is 5.9%, the “% inhibition female (individual replicates) R1” value came out at 1.1%, the “% inhibition female (individual replicates) R3” value was -17.0% and the “% inhibition female (individual replicates) R4” value turned out to be 37.8%. The molecule also gave a HitlevelF in assay [1] (setting [4]) of 0. In assay [2] (setting [3]), the “Average inhibition male (%)” value stood at 6.6%, the “% inhibition male (individual replicates) R1” value was determined as 1.3%, the “% inhibition male (individual replicates) R3” value is given as 4.0% and the “% inhibition male (individual replicates) R4” value came to 10.9%. Besides, in assay [2] (setting [5]), the HitlevelM is 0. The molecule also displayed an Activity in assay [2] (setting [6]) of 0.

Take `CC(Cc1ccc(CNC(=O)c2ccc(CC(C)NCCc3cccc(Cl)c3)cc2)cc1)NCCc1cccc(Cl)c1` (stereo not shown) [TCMDC-139659]: in assay [1] (setting [3]), the “Average inhibition female (%)” value was 5.1%, the “% inhibition female (individual replicates) R1” value is listed as 10.4%, the “% inhibition female (individual replicates) R3” value is reported as -19.4% and the “% inhibition female (individual replicates) R4” value is listed as -1.7%. Also, in assay [1] (setting [4]), the HitlevelF amounted to 0. Moreover, in assay [2] (setting [3]), the “Average inhibition male (%)” value is given as 33.9%, the “% inhibition male (individual replicates) R1” value was determined as 26.3%, the “% inhibition male (individual replicates) R3” value amounted to 2.8% and the “% inhibition male (individual replicates) R4” value worked out at 42.9%. In assay [2] (setting [5]), this molecule yielded a HitlevelM of 1. Moreover, the Activity in assay [2] (setting [6]) is on record as 0.

For the molecule `O=C(/C=C/c1ccc(Cl)c(Cl)c1)N1CCC2CC(N3CCC(c4c[nH]c5ccccc45)CC3)CCC2C1` (stereo not shown) [TCMDC-139677], in assay [1] (setting [3]), the “Average inhibition female (%)” value was found to be 4.1%, the “% inhibition female (individual replicates) R1” value is given as 10.8%, the “% inhibition female (individual replicates) R3” value was -1.7% and the “% inhibition female (individual replicates) R4” value was 7.4%. Besides, in assay [1] (setting [4]), the HitlevelF is recorded as 0. Moreover, in assay [2] (setting [3]), the “Average inhibition male (%)” value was 6.9%, the “% inhibition male (individual replicates) R1” value is on record as -0.85%, the “% inhibition male (individual replicates) R3” value was 2.4% and the “% inhibition male (individual replicates) R4” value is on record as 12.3%. Further, in assay [2] (setting [5]), the HitlevelM amounted to 0. In addition, in assay [2] (setting [6]), the Activity is recorded as 0.

For the molecule `CC(=O)N(Cc1ccc(CC(C)NCCc2cccc(Cl)c2)cc1)Cc1ccc(CC(C)NCCc2cccc(Cl)c2)cc1` (stereo not shown) [TCMDC-139678], in assay [1] (setting [3]), the “Average inhibition female (%)” value is 14.1%, the “% inhibition female (individual replicates) R1” value is recorded as 15.3%, the “% inhibition female (individual replicates) R3” value turned out to be 11.1% and the “% inhibition female (individual replicates) R4” value was 16.3%. Also, the HitlevelF in assay [1] (setting [4]) was determined as 0. In addition, in assay [2] (setting [3]), the “Average inhibition male (%)” value is reported as 26.9%, the “% inhibition male (individual replicates) R1” value came to 39.1%, the “% inhibition male (individual replicates) R3” value was found to be 19.2% and the “% inhibition male (individual replicates) R4” value is listed as 27.9%. This molecule had a HitlevelM in assay [2] (setting [5]) of 0. In addition, the Activity in assay [2] (setting [6]) amounted to 0.

For the molecule `COc1ccc(CCNC(C)Cc2ccc(C(=O)Nc3ccc(CC(C)NCCc4cccc(Cl)c4)cc3)cc2)cc1` (stereo not shown) [TCMDC-139750], in assay [1] (setting [10]), the “Average inhibition female (%)” value was found to be 25.6%, the “% inhibition female (individual replicates) R1” value turned out to be 25.4%, the “% inhibition female (individual replicates) R3” value stood at 18.2% and the “% inhibition female (individual replicates) R4” value is 15.5%. For the same molecule, in assay [1] (number of replicates with >50% inhibition in the female readout, 2µM), the HitlevelF worked out at 0. Further, in assay [2] (setting [10]), the “Average inhibition male (%)” value is 69.1%, the “% inhibition male (individual replicates) R1” value is 78.2%, the “% inhibition male (individual replicates) R3” value was 37.9% and the “% inhibition male (individual replicates) R4” value stood at 84.9%. In assay [2] (number of replicates with >50% inhibition in the male readout, 2µM), this molecule came in with a HitlevelM of 3.

For `CC(CCCC(=O)Nc1ccc(CC(C)NCCc2cccc(Cl)c2)cc1)NCCc1cccc(Cl)c1` (stereo not shown) [TCMDC-139798], in assay [1] (setting [3]), the “Average inhibition female (%)” value came to 14.3%, the “% inhibition female (individual replicates) R1” value stood at 14.3%, the “% inhibition female (individual replicates) R3” value is 3.2% and the “% inhibition female (individual replicates) R4” value amounted to 8.4%. The molecule also yielded a HitlevelF in assay [1] (setting [4]) of 0. In assay [2] (setting [3]), the “Average inhibition male (%)” value was determined as 45.7%, the “% inhibition male (individual replicates) R1” value is 47.5%, the “% inhibition male (individual replicates) R3” value was 7.0% and the “% inhibition male (individual replicates) R4” value is 68.9%. Further, the HitlevelM in assay [2] (setting [5]) is 2. For the same molecule, the Activity in assay [2] (setting [6]) was determined as 0.

For the molecule `CC(CCCCCC(=O)Nc1ccc(CC(C)NCCc2cccc(Cl)c2)cc1)NCCc1cccc(Cl)c1` (stereo not shown) [TCMDC-139800], in assay [1] (setting [3]), the “Average inhibition female (%)” value is on record as 20.4%, the “% inhibition female (individual replicates) R1” value amounted to 18.8%, the “% inhibition female (individual replicates) R3” value is 1.8% and the “% inhibition female (individual replicates) R4” value is reported as 5.6%. For the same molecule, the HitlevelF in assay [1] (setting [7]) came to 1. In addition, in assay [2] (setting [3]), the “Average inhibition male (%)” value worked out at 45.2%, the “% inhibition male (individual replicates) R1” value turned out to be 25.8%, the “% inhibition male (individual replicates) R3” value is on record as -13.9% and the “% inhibition male (individual replicates) R4” value was found to be 77.6%. For the same molecule, the HitlevelM in assay [2] (setting [8]) was determined as 2.

`CCOc1ccccc1CCNC(C)Cc1ccc(C(=O)Nc2ccc(CC(C)NCCc3cccc(Cl)c3)cc2)cc1` (stereo not shown) [TCMDC-139805]: in assay [1] (setting [3]), the “Average inhibition female (%)” value is 24.4%, the “% inhibition female (individual replicates) R1” value was determined as 22.1%, the “% inhibition female (individual replicates) R3” value came out at 9.3% and the “% inhibition female (individual replicates) R4” value was determined as 29.9%. Moreover, the HitlevelF in assay [1] (setting [7]) is recorded as 0. Moreover, in assay [2] (setting [3]), the “Average inhibition male (%)” value worked out at 59.5%, the “% inhibition male (individual replicates) R1” value was 59.5%, the “% inhibition male (individual replicates) R3” value was determined as 21.2% and the “% inhibition male (individual replicates) R4” value came out at 86.9%. This molecule also returned a HitlevelM in assay [2] (setting [8]) of 3.

For `CC(Cc1ccc(COc2ccc(CC(CO)NCCc3cccc(Cl)c3)cc2)cc1)NCCc1cccc(Cl)c1.Cl` (stereo not shown) [TCMDC-139844], in assay [1] (setting [9]), the “% inhibition female (individual replicates) R1” value was -3.0%, the “% inhibition female (individual replicates) R3” value was -11.7% and the “% inhibition female (individual replicates) R4” value came to 12.8%. For the same molecule, in assay [1] (setting [6]), the “Average inhibition female (%)” value stood at 1.7%. For the same molecule, in assay [2] (setting [9]), the “% inhibition male (individual replicates) R1” value is listed as -13.5%, the “% inhibition male (individual replicates) R3” value was determined as 14.9% and the “% inhibition male (individual replicates) R4” value came out at 2.8%. Further, in assay [2] (setting [6]), the “Average inhibition male (%)” value is reported as 1.7%.
